In patent US20230027066A1 (Urovant Sciences GmbH, priority 2019, published 2023):

System: men and women with overactive bladder
Assay: Phase 3 study of vibegron 75 mg vs placebo and tolterodine ER 4 mg, 12 weeks, efficacy (voiding and urine volume diary)
Type: in vivo, human
Description: Enrollment of patients included individuals with OAB Wet (those with UUI, the involuntary loss of urine accompanied by urgency) and OAB Dry (those without UUI). A total of 1,518 patients were randomized across 215 study sites into one of three groups for a 12-week treatment period.
The study consisted of a Screening Period (1 to 5 weeks), a single-blind Run-in Period (2 weeks), a randomized double-blind Treatment Period (12 weeks), and a Follow-up Period (4 weeks).
Tolterodine ER 4 mg was the active control. […] Between the Baseline and Week 12 Visits, patients had study assessments at Week 4 and Week 8.
The Patient Voiding Diary was used by participants (via the eDiary or paper Diary) to record the frequency of daily OAB symptoms including all micturitions, urgency, incontinence, and main reason for incontinence by selecting the respective box for each symptom occurring during the course of a given day and night.
Urine volume data were collected separately by patients using the Urine Volume component of the eDiary, or the paper Urine Volume Chart. The Urine Volume Chart is a tool used in clinical practice and clinical investigation to assess voiding functions over a 24-hour period and is regarded as a useful instrument in the investigation of patients with voiding symptoms. Urine volume may be collected during any one (1) of the 7 Diary Days prior to the visit, and it should be recorded for ˜24 hours starting from the time the patient gets up for the day and continues until the time the patient gets up for the day on the next day.
For the purpose of this study, the number of micturitions was defined as the number of times a patient has voided in the toilet as indicated on the Patient Voiding Diary. Average daily micturitions were calculated using the daily entries in the Patient Voiding Diary, which was completed over the 7 days prior to each study visit. Average daily number of micturitions were calculated as the total number of micturitions that occurred on a Complete Diary Day divided by the number of Complete Diary Days in the Patient Voiding Diary. A complete diary day required confirmation by the patient in the Patient Voiding Diary that all voids and leakages had been recorded for the diary day. Baseline was defined as the average number of micturitions occurring during the last evaluable diary prior to the Baseline Visit.
The number of UUI episodes was defined as the number of times a patient had checked “urge” as the reason for accidental urine leakage. Average daily UUI episodes at each study visit were calculated in the same manner as described above for the micturition endpoint. The UUI endpoint were analyzed using only OAB Wet patients.
For the analysis of the co-primary endpoints (change from baseline in average number of daily micturitions at Week 12 and change from baseline in average number of daily urge urinary incontinence episodes at Week 12, and placebo adjustment of each), a mixed model for repeated measure (MMRM) with restricted maximum likelihood estimation was used. This model corrects for dropout and accounts for the fact that measurements taken on the same patient over time tend to be correlated by using all available information on patients within the same covariate set to derive an estimate of the treatment effect for a dropout-free population. The analysis model for each efficacy endpoint includes terms for treatment, visit, OAB Type (Wet vs Dry), Sex (Female vs Male), Region (US vs Rest of World), baseline score, and interaction of visit by treatment.
Primary inferences were drawn from treatment differences for the changes from baseline derived from the MMRM models at Week 12. As part of secondary objectives, the treatment differences for each post baseline visit were also derived using the same MMRM model. […]

[1] = Week 8, events of Events/Censored
[2] = Week 12, Age ≥ 75 years (posthoc analysis)
[3] = Week 12, No Prior ACH Use in last 12 Mo.
[4] = Week 12, No Prior B3 Agonist Use in last 12 Mo.
[5] = Week 12, Prior ACH Use in last 12 Mo.
[6] = Week 12, Prior B3 Agonist Use in last 12 Mo.

Which results are given for `Cc1ccc(O)c([C@H](CCN(C(C)C)C(C)C)c2ccccc2)c1` [Tolterodine ER, tolterodine, reference compound]?
Average daily number of urgency episodes, Mean (SD) (Week 8): 5.60 (4.266); Average volume voided per micturition, Active - Placebo LS Mean Difference (Week 8): 14.4 mL; Average volume voided per micturition, Week 8 Mean (SD) (Week 8): 162.9 (74.46) mL; Change from Baseline in Average Daily Number of Total Incontinence, LS Mean (SE) (Week 8): −1.8 (0.16); Change from baseline in average daily number of urgency episodes, LS Mean (Week 8): −2.2; Change from baseline in average volume voided per micturition, LS Mean (SE) (Week 8): 17.5 (3.44) mL; Estimated Incidence of Subjects with 50% Decrease from Baseline (urgency episodes) (Week 8): 30.9; Estimated Incidence of Subjects with 100% Decrease from Baseline (UUI episodes) (Week 8): 15.8; Total Incontinence, Active - Placebo LS Mean Difference (SE) (Week 8): −0.5 (0.17); Urgency episodes, Active - Placebo LS Mean Difference (Week 8): −0.6; First 50% Reduction in Urgency Episodes, Events [1]: 127/290; First 100% Reduction in UUI Episodes, Events [1]: 49/270; Average Daily Number of Total Incontinence, Mean (SD) (Week 12): 1.89 (2.353); Average daily number of urgency episodes, Mean (SD) (Week 12): 5.36 (4.425); Average volume voided per micturition, Active - Placebo LS Mean Difference (Week 12): 13.3 mL; Average volume voided per micturition, Week 12 Mean (SD) (Week 12): 162.1 (72.96) mL; Change from Baseline in Average Daily Number of Total Incontinence, LS Mean (SE) (Week 12): −2.0 (0.16); Change from baseline in average daily number of urgency episodes, LS Mean (Week 12): −2.5; Change from baseline in average volume voided per micturition, LS Mean (SE) (Week 12): 15.5 (3.52) mL; Estimated Incidence of Subjects with 50% Decrease from Baseline (urgency episodes) (Week 12): 40.5; Estimated Incidence of Subjects with 100% Decrease from Baseline (UUI episodes) (Week 12): 24.4; Total Incontinence, Active - Placebo LS Mean Difference (SE) (Week 12): −0.5 (0.17); Urgency episodes, Active - Placebo LS Mean Difference (Week 12): −0.4; Micturitions: Week 12 CFB Mean (descriptive statistics) (Week 12, <65 yrs): −1.99; UUI: Week 12 CFB Mean (descriptive statistics) (Week 12, African American): −1.42; UUI: Week 12 CFB Median (Week 12, African American): −1.43; Micturitions: Week 12 CFB LS Mean (95% CI) (Week 12, Age < 65 years): −1.8; UUI: Week 12 CFB LS Mean (95% CI) (Week 12, Age < 65 years): −1.8; UUI: Week 12 CFB Mean (descriptive statistics) (Week 12, Age < 65 years): −1.72; Micturitions: Week 12 CFB LS Mean (95% CI) (Week 12, Age ≥ 65 years): −1.3; UUI: Week 12 CFB LS Mean (95% CI) (Week 12, Age ≥ 65 years): −1.8; UUI: Week 12 CFB Mean (descriptive statistics) (Week 12, Age ≥ 65 years): −1.80; Micturitions: Week 12 CFB LS Mean (95% CI) [2]: −1.5; UUI: Week 12 CFB LS Mean (95% CI) [2]: −2.0; UUI: Week 12 CFB Mean (descriptive statistics) (Week 12, Asian): −0.21; UUI: Week 12 CFB Median (Week 12, Asian): −0.14; Micturitions: Week 12 CFB LS Mean (95% CI) (Week 12, Females): −1.7; Micturitions: Week 12 CFB Mean (descriptive statistics) (Week 12, Females): −1.88; UUI: Week 12 CFB LS Mean (95% CI) (Week 12, Females): −1.8; UUI: Week 12 CFB Mean (descriptive statistics) (Week 12, Females): −1.71; Micturitions: Week 12 CFB LS Mean (95% CI) (Week 12, Males): −1.0; Micturitions: Week 12 CFB Mean (descriptive statistics) (Week 12, Males): −1.28; UUI: Week 12 CFB LS Mean (95% CI) (Week 12, Males): −2.0; UUI: Week 12 CFB Mean (descriptive statistics) (Week 12, Males): −2.08; Micturitions: Week 12 CFB Mean (descriptive statistics) (Week 12, Males with BPH): −1.25; UUI: Week 12 CFB Mean (descriptive statistics) (Week 12, Males with BPH): −2.15; Micturitions: Week 12 CFB Mean (descriptive statistics) (Week 12, Males without BPH): −1.29; UUI: Week 12 CFB Mean (descriptive statistics) (Week 12, Males without BPH): −2.05; Micturitions: Week 12 CFB Mean (descriptive statistics) [3]: −1.82; UUI: Week 12 CFB Mean (descriptive statistics) [3]: −1.88; Micturitions: Week 12 CFB Mean (descriptive statistics) [4]: −1.83; UUI: Week 12 CFB Mean (descriptive statistics) [4]: −1.83; Micturitions: Week 12 CFB LS Mean (95% CI) (Week 12, Non-White): −1.3; Micturitions: Week 12 CFB Mean (descriptive statistics) (Week 12, Non-White): −1.42; UUI: Week 12 CFB LS Mean (95% CI) (Week 12, Non-White): −1.3; UUI: Week 12 CFB Mean (descriptive statistics) (Week 12, Non-White): −1.11; UUI: Week 12 CFB Median (Week 12, Non-White): −1.00; Micturitions: Week 12 CFB LS Mean (95% CI) (Week 12, Overall): −1.6; Micturitions: Week 12 CFB Mean (descriptive statistics) (Week 12, Overall): −1.78; UUI: Week 12 CFB LS Mean (95% CI) (Week 12, Overall): −1.8; UUI: Week 12 CFB Mean (descriptive statistics) (Week 12, Overall): −1.75; Micturitions: Week 12 CFB Mean (descriptive statistics) [5]: −1.52; UUI: Week 12 CFB Mean (descriptive statistics) [5]: −0.98; Micturitions: Week 12 CFB Mean (descriptive statistics) [6]: −1.30; UUI: Week 12 CFB Mean (descriptive statistics) [6]: −0.65; Micturitions: Week 12 CFB LS Mean (95% CI) (Week 12, Region: Non-US): −1.0; Micturitions: Week 12 CFB Mean (descriptive statistics) (Week 12, Region: Non-US): −1.38; UUI: Week 12 CFB LS Mean (95% CI) (Week 12, Region: Non-US): −2.0; UUI: Week 12 CFB Mean (descriptive statistics) (Week 12, Region: Non-US): −2.26; Micturitions: Week 12 CFB LS Mean (95% CI) (Week 12, Region: US): −1.7; Micturitions: Week 12 CFB Mean (descriptive statistics) (Week 12, Region: US): −1.83; UUI: Week 12 CFB LS Mean (95% CI) (Week 12, Region: US): −1.7; UUI: Week 12 CFB Mean (descriptive statistics) (Week 12, Region: US): −1.69; Micturitions: Week 12 CFB LS Mean (95% CI) (Week 12, White): −1.6; Micturitions: Week 12 CFB Mean (descriptive statistics) (Week 12, White): −1.90; UUI: Week 12 CFB LS Mean (95% CI) (Week 12, White): −1.9; UUI: Week 12 CFB Mean (descriptive statistics) (Week 12, White): −1.92; UUI: Week 12 CFB Median (Week 12, White): −1.57
